Test [1] concerns Luteinizing hormone (LH) blood level. In words: LH blood level in patients on home controlled ovarian hyperstimulation method with vaginal elagolix (Example 2). It counts as in vivo, female patients. The following applies: for Luteinizing hormone (LH) blood level: 50 mg elagolix vaginal suppository days 9 and 11. The procedure: Five female patients were treated with the controlled ovarian hyperstimulation method described herein using the elagolix pill (vaginal route) instead of the conventional Ganirelex/Cetrotide injectables. On day 3 of the patient's menstrual cycle, the patient orally took 100 mg (two 50 mg oral tablets) of clomiphene citrate and 5 mg (two 2.5 mg oral tablets) of letrozole. The patient then took the same oral dosages of clomiphene citrate and letrozole daily on each of days 4-7 of the patient's menstrual cycle. On day 8 of the patient's menstrual cycle, the patient orally took only 100 mg (two 50 mg oral tablets) of clomiphene citrate, and stopped the letrozole. On day 9 of the menstrual cycle, the patient orally took 100 mg (two 50 mg oral tablets) of clomiphene citrate and inserted vaginally a 50 mg tablet of elagolix as a vaginal suppository. On day 10 of the menstrual cycle, the patient orally took only 100 mg (two 50 mg oral tablets) of clomiphene citrate. On day 11 of the menstrual cycle, the patient orally took 100 mg (two 50 mg oral tablets) of clomiphene citrate and inserted vaginally a 50 mg tablet of elagolix as a vaginal suppository. Also, on day 11, the patient took a home ovulation test in the morning (9:00 am) and in the evening (9:00 pm). For the patients whose ovulation tests were not positive, then on days 12 and 13, the patient took 2 doses of leuprorelin as a nasal spray (1:40 dilution in saline) as follows. On day 12, after taking a home ovulation test at 9:00 am, 2 puffs (sprays) of the nasal spray were self-administered by the patient per nostril. After 12 hours of waiting, at 9:00 pm the patient took a home urine ovulation test and then self-administered 2 more puffs (sprays) of the nasal spray per nostril. On day 13, the patient repeated the procedure of day 12. Luteinizing hormone (LH) blood level was 7.0 mIU/mL on day 11 and dropped to 1.0 mIU/mL on day 13.
(§1) Table 2 below provides a comparison of the efficacy of conventional Ganirelex/Cetrotide injectables treatment for IVF in the five representative patients from Example 1 with the home controlled ovarian hyperstimulation method described herein in the five representative patients from Example 2.

The test system is the same in test [2]. The test is described as follows: LH blood level in patients on GnRH antagonist protocol with ganirelix acetate injections (Example 1). It counts as in vivo, female patients. The procedure: Five female patients were treated with a GnRH antagonist protocol requiring injections of medications.
One patient, patient no. 1, was injected with 150 Units of FSH on days 3 to 12; half a syringe of 150 mcg/0.5 mL of ganirelix acetate on days 11 and 12; and 50 mg of clomiphene citrate on days 3 to 12; and 2.5 mg of letrozole on days 3 to 7. Luteinizing hormone (LH) blood level was 4.3 mIU/mL on day 10 and dropped to 2 mIU/mL on day 12.
A second patient, patient no. 2, was injected with 75 Units of FSH on days 4 to 12 and 150 Units on day 13; half a syringe of 150 mcg/0.5 mL of ganirelix acetate on days 11 to 13; 50 mg of clomiphene citrate on days 10 to 12, and 2.5 mg of letrozole on days 3 to 7. Luteinizing hormone (LH) blood level was 12.0 mIU/mL on day 11 and dropped to 6.3 mIU/mL on day 13.
Three patients, numbered 3 to 5, were injected with 75, 150 and 225 Units of FSH, respectively, on days 4 to 12 and one third a syringe of 150 mcg/0.5 mL of ganirelix acetate on days 11 to 13. Patient no. 3 received 50 mg of clomiphene citrate on days 4 to 12, and 2.5 mg of letrozole on days 4 to 8. Patient no. 4 received 100 mg of clomiphene citrate and 2.5 mg of letrozole on days 4 to 8, and 50 mg of clomiphene citrate on days 9 to 11. Patient no. 5 received no clomiphene citrate or letrozole. Luteinizing hormone (LH) blood level was 12.0, 18.0 and 14.6 mIU/mL, respectively, on day 10 and dropped to 4.9, 16.0 and 14.1 mIU/mL, respectively, on day 12.
as §1

The mark [3] stands for this setting: Example 2, vaginal elagolix suppository 50 mg days 9 and 11, individual patients 1-5, blood.
Where [4] appears, read: Example 1, conventional injectables, individual patients 1-5, blood.

Values joined by “and” are separate entries in the source; they are usually repeats but may differ in a detail not shown here. Equal values may be shown once.

For `COc1cccc(-c2c(C)n(Cc3c(F)cccc3C(F)(F)F)c(=O)n(C[C@H](NCCCC(=O)O)c3ccccc3)c2=O)c1F` [Vaginal elagolix suppository, elagolix], the “% Drop in blood LH hormone level” value in test [1] (Example 2, vaginal elagolix suppository 50 mg days 9 and 11, individual patients 1-5) was 85.7% and 65.9% and 68.6% and 79.3% and 88.6%. Also, in test [1] (setting [3]), the “LH blood hormone level (mIU/mL) AFTER medication intake” value was 1.0 mIU/mL and 5.7 mIU/mL and 3.2 mIU/mL and 1.7 mIU/mL and 0.8 mIU/mL; the “LH blood hormone level (mIU/mL) BEFORE medication intake” value was 7.0 mIU/mL and 16.7 mIU/mL and 10.2 mIU/mL and 8.2 mIU/mL and 7 mIU/mL. Further, in test [1] (day 11), the “Luteinizing hormone (LH) blood level” value stood at 7.0 mIU/mL. Moreover, in test [1] (day 11 to day 13), the “drop in LH blood hormone levels” value is on record as 85.7%. Also, in test [1] (day 13), the “Luteinizing hormone (LH) blood level” value was 1.0 mIU/mL.
On to ganirelix acetate, for which the “% Drop in blood LH hormone level” value in test [2] (Example 1, conventional injectables, individual patients 1-5) was 53.5% and 47.5% and 59.2% and 11.1% and 3.4%. Besides, the “LH blood hormone level (mIU/mL) AFTER medication intake” value in test [2] (setting [4]) was 2.0 mIU/mL and 6.3 mIU/mL and 4.9 mIU/mL and 16.0 mIU/mL and 14.1 mIU/mL. The “LH blood hormone level (mIU/mL) BEFORE medication intake” value in test [2] (setting [4]) was 4.3 mIU/mL and 12.0 mIU/mL (2×) and 18.0 mIU/mL and 14.6 mIU/mL. Besides, the “Luteinizing hormone (LH) blood level” value in test [2] (patient no. 1, day 10, half a syringe ganirelix acetate days 11 and 12, 150 Units FSH) is given as 4.3 mIU/mL; in test [2] (patient no. 1, day 12, half a syringe ganirelix acetate days 11 and 12, 150 Units FSH), 2 mIU/mL; in test [2] (patient no. 2, day 11, half a syringe ganirelix acetate days 11 to 13, 75 Units FSH) it was 12.0 mIU/mL; in test [2] (patient no. 2, day 13, half a syringe ganirelix acetate days 11 to 13, 75 Units FSH), 6.3 mIU/mL; in test [2] (patient no. 3, day 10, one third a syringe ganirelix acetate days 11 to 13, 75 Units FSH), 12.0 mIU/mL; in test [2] (patient no. 3, day 12, one third a syringe ganirelix acetate days 11 to 13, 75 Units FSH) it was 4.9 mIU/mL. Further, the “Luteinizing hormone (LH) blood level” value in test [2] (patient no. 4, day 10, one third a syringe ganirelix acetate days 11 to 13, 150 Units FSH) was determined as 18.0 mIU/mL; in test [2] (patient no. 4, day 12, one third a syringe ganirelix acetate days 11 to 13, 150 Units FSH) it was 16.0 mIU/mL; in test [2] (patient no. 5, day 10, one third a syringe ganirelix acetate days 11 to 13, 225 Units FSH, no clomiphene citrate or letrozole) it was 14.6 mIU/mL; in test [2] (patient no. 5, day 12, one third a syringe ganirelix acetate days 11 to 13, 225 Units FSH, no clomiphene citrate or letrozole), 14.1 mIU/mL. Moreover, the “drop in LH blood hormone levels” value in test [2] (patient no. 1, day 10 to day 12) worked out at 53.5%; in test [2] (patient no. 2, day 11 to day 13), 47.5%; in test [2] (patient no. 3, day 10 to day 12), 59.25; in test [2] (patient no. 4, day 10 to day 12), 11.1%; in test [2] (patient no. 5, day 10 to day 12), 3.4%.

The values above are taken from patent US10850134B2, “Method and kit for home controlled ovarian stimulation for in vitro fertilization” (priority 2019, dated 2020).
